Test results reported in patent US10647680B2, “Urea compound, preparation method therefor and medical use thereof” (Ancureall Pharmaceutical (Shanghai) Co., Ltd., priority 2016, dated 2020).
Where “and” joins values, the source holds several entries; their conditions need not be identical. Identical values can stand only once. Counter-ions that a name gives are not always drawn. Like-named read-outs stand apart in the source and are kept apart here.

Test: In vivo pharmacokinetics in rats
Design: species or system rat
Protocol: The pharmacokinetic experiments in rats were performed using compound 77 of the present invention as a representative example.
Procedure: 6 SD male rats (˜200 g, purchased from Shanghai Sippr-BK Experimental Animal Co., Ltd) were selected and divided into two groups according to the experimental design table (Table 9). Animals were administered intravenously and orally. Dosing was performed once on the treating day and the doses were 5 mg/kg and 10 mg/kg, respectively.
Drug formulation method: the required amount of test sample was added to a certain volume of 40% (HP-β-CD) aqueous solution, and then stirred under heating (temperature 25-45° C.) until dissolution, then the same volume of deionized water was added and adjusted to pH 5 with NaOH, to prepare 20% HP-β-CD clear aqueous solution.
For the intravenous administration group, blood samples were taken from jugular veins before administration and 2 min, 5 min, 15 min, 30 min, 1 h, 2 h, 4 h, 6 h, 8 h, and 24 h after administration; for the oral administration group, blood samples were taken from jugular veins before administration and 5 min, 30 min, 1 h, 2 h, 4 h, 6 h, 8 h, 10 h, and 24 h. The collected blood samples were centrifuged to separate plasma within 30 min (centrifugation condition: 8000 rpm, 6 minutes, 2-8° C.). The plasma samples were stored at −80° C. in a freezer before assay. The plasma samples were used for LC-MS/MS method development and sample testing.
The pharmacokinetic parameters (AUC(0-t), AUC(0-∞), T1/2, MRT(0-∞), Cmax, Tmax and F) were calculated using WinNonlin Professional v5.2 (Pharsight USA). In addition, the bioavailability (F) was calculated by the following formula.

[1] = SD rats, intravenously, 5 mg/kg, individual animals 101-103, listed as methanesulfonate of compound 77, 5 mg/kg
[2] = SD rats, orally, 10 mg/kg, individual animals 201-203, listed as methanesulfonate of compound 77, 10 mg/kg
[3] = male, SD, rat, plasma, iv, 5 mg/kg, intravenously, Mean
[4] = male, SD, rat, plasma, iv, 5 mg/kg, intravenously, individual animals 101-103
[5] = male, SD, rat, plasma, po, 10 mg/kg, orally, Mean
[6] = male, SD, rat, plasma, po, 10 mg/kg, orally, individual animals 201-203

COCCOc1ccc2c(c1)ncn2-c1ccc(NC(=O)Nc2cc(C(C)(C)C)n[nH]2)cc1 [Compound 77 Mesylate, 1-(5-tert-butyl-2H-pyrazol-3-yl)-3-{4-[5-(2-methoxyl-ethoxyl)-benzimidazol-1-yl]-phenyl}-urea]
AUC(0-t) [1]: 14458 ng·h/mL and 13825 ng·h/mL | AUC(0-∞) [1]: 14501 ng·h/mL and 13969 ng·h/mL | CL [1]: 5.75 mL/min/kg and 5.97 mL/min/kg | Cmax [1]: 20795 ng/mL and 17312 ng/mL | MRT(0-t) [1]: 3.86 h and 4.21 h | Vss [1]: 1.355 L/kg and 1.599 L/kg | Vz [1]: 1.473 L/kg and 2.01 L/kg | t½ [1]: 2.96 h and 3.89 h | AUC(0-t) [2]: 7249 ng·h/mL and 6927 ng·h/mL | AUC(0-∞) [2]: 7294 ng·h/mL and 7067 ng·h/mL | Cmax [2]: 1082 ng/mL and 1095 ng/mL | MRT(0-t) [2]: 5.07 h and 5.45 h | t½ [2]: 3.36 h and 4.53 h | AUC(0-t) (male, SD, rat, plasma, iv, 5 mg/kg, administered intravenously, 5 mg/kg, read-out: AUC(0-t)): 14400 ng·h/mL | Cmax (male, SD, rat, plasma, iv, 5 mg/kg, administered intravenously, 5 mg/kg, read-out: Cmax): 18700 ng/mL | AUC(0-t) (male, SD, rat, plasma, iv, 5 mg/kg, intravenously, 5 mg/kg, Mean, read-out: AUC(0-t)): 14400 ng·h/mL | Cmax (male, SD, rat, plasma, iv, 5 mg/kg, intravenously, 5 mg/kg, Mean, read-out: Cmax): 18700 ng/mL | MRT inf (male, SD, rat, plasma, iv, 5 mg/kg, intravenously, 5 mg/kg, Mean, read-out: MRT (0-∞)): 4.27 h | MRT last (male, SD, rat, plasma, iv, 5 mg/kg, intravenously, 5 mg/kg, Mean, read-out: MRT(0-t)): 4.03 h | Vd (male, SD, rat, plasma, iv, 5 mg/kg, intravenously, 5 mg/kg, Mean, read-out: Vss): 1.47 L/kg | Vd (male, SD, rat, plasma, iv, 5 mg/kg, intravenously, 5 mg/kg, Mean, read-out: Vz): 1.8 L/kg | half-life (male, SD, rat, plasma, iv, 5 mg/kg, intravenously, 5 mg/kg, Mean, read-out: t½ (converted)): 3.62 h | AUC(0-t) (male, SD, rat, plasma, iv, 5 mg/kg, intravenously, 5 mg/kg, individual animals 101-103, read-out: AUC(0-t)): 14900 ng·h/mL | Cmax (male, SD, rat, plasma, iv, 5 mg/kg, intravenously, 5 mg/kg, individual animals 101-103, read-out: Cmax): 18000 ng/mL | MRT inf (male, SD, rat, plasma, iv, 5 mg/kg, intravenously, 5 mg/kg, individual animals 101-103, read-out: MRT (0-∞)): 4.42 h | MRT last (male, SD, rat, plasma, iv, 5 mg/kg, intravenously, 5 mg/kg, individual animals 101-103, read-out: MRT(0-t)): 4.04 h | Vd (male, SD, rat, plasma, iv, 5 mg/kg, intravenously, 5 mg/kg, individual animals 101-103, read-out: Vss): 1.46 L/kg | Vd (male, SD, rat, plasma, iv, 5 mg/kg, intravenously, 5 mg/kg, individual animals 101-103, read-out: Vz): 1.91 L/kg | half-life (male, SD, rat, plasma, iv, 5 mg/kg, intravenously, 5 mg/kg, individual animals 101-103, read-out: t½ (converted)): 4.01 h | AUC(0-inf) [3]: 14500 ng·h/mL | clearance [3]: 5.73 mL/min/kg | AUC(0-inf) [4]: 15200 ng·h/mL | clearance [4]: 5.5 mL/min/kg | AUC(0-t) (male, SD, rat, plasma, po, 10 mg/kg, administered orally, 10 mg/kg, read-out: AUC(0-t)): 6770 ng·h/mL | Cmax (male, SD, rat, plasma, po, 10 mg/kg, administered orally, 10 mg/kg, read-out: Cmax): 1050 ng/mL | AUC(0-t) (male, SD, rat, plasma, po, 10 mg/kg, orally, 10 mg/kg, Mean, read-out: AUC(0-t)): 6770 ng·h/mL | Cmax (male, SD, rat, plasma, po, 10 mg/kg, orally, 10 mg/kg, Mean, read-out: Cmax): 1050 ng/mL | MRT last (male, SD, rat, plasma, po, 10 mg/kg, orally, 10 mg/kg, Mean, read-out: MRT(0-t)): 5.38 h | half-life (male, SD, rat, plasma, po, 10 mg/kg, orally, 10 mg/kg, Mean, read-out: t½ (converted)): 3.86 h | AUC(0-t) (male, SD, rat, plasma, po, 10 mg/kg, orally, 10 mg/kg, individual animals 201-203, read-out: AUC(0-t)): 6140 ng·h/mL | Cmax (male, SD, rat, plasma, po, 10 mg/kg, orally, 10 mg/kg, individual animals 201-203, read-out: Cmax): 977 ng/mL | MRT last (male, SD, rat, plasma, po, 10 mg/kg, orally, 10 mg/kg, individual animals 201-203, read-out: MRT(0-t)): 5.61 h | half-life (male, SD, rat, plasma, po, 10 mg/kg, orally, 10 mg/kg, individual animals 201-203, read-out: t½ (converted)): 3.7 h | AUC(0-inf) [5]: 6860 ng·h/mL | MRT [5]: 5.68 h | AUC(0-inf) [6]: 6210 ng·h/mL | MRT [6]: 5.9 h | Tmax (male, rat, plasma, po, SD rats, orally, 10 mg/kg, Mean): 2 h | bioavailability (male, rat, plasma, SD rats, oral 10 mg/kg versus intravenous 5 mg/kg): 23.5%
